Reference: patent US12390441B2, “Immunomodulating o-het/aryl azalides” (Zoetis Services LLC, priority 2020, dated 2025)
pIC50: −log10 of the molar value.

How the values were obtained:
P. multocida 46572 = assay: In vivo mouse lung infection challenge model (murine); design: species or system CD-1 female mice
Method: The challenge organism was P. multocida 46572. Target challenge concentration was 5×10^2 CFU/mouse. Isolated colonies from overnight growth (37° C. with 5% CO2) on trypticase soy agar (TSA II) blood plates were transferred to room temperature Brain Heart Infusion Broth (BHIB). The broth culture was incubated 3.5-4 hours to approximately mid-log phase of growth, as measured by forward light scatter at 600 nm (OD600, 0.200). The culture was centrifuged to collect the bacterial pellet. The pellet was re-suspended in BHIB and adjusted to provide an approximate concentration of 2.7 log^10 colony forming units (CFU) in 0.04 mL at the highest concentration. The challenge inoculum concentration was confirmed by serial dilutions of the inoculum for CFU enumeration. On Day −5, CD-1 female mice were received. Mice were given standard rodent diet and water ad libitum. On Day 0, bacterial inoculum (0.04 mL) was administered to each mouse (n=36) intranasally. Compounds of the invention were dosed at 20 mg/kg (0.1 mL) in a buffered (˜pH 5.4) propylene glycol, monothioglycerol and water solution by subcutaneous injection. Animals were observed from Days 1-10. The study was terminated on Day 10. In addition, some treatment groups were sampled at 6, 24, and 48 hours post bacterial challenge for RNA sequence analysis of lung tissue.
The murine efficacy model (P. multocida challenge) was optimized, and the treatment group size was powered to be able to observe statistically significant improvement of survival to expected ranges for immunomodulatory compounds. The experimental design was a randomized complete block design. Mice were individually identified and treatment groups comingled within a cage, with every treatment group equally represented across cages. Mortality was the primary variable. Mortality data was analyzed using a generalized mixed model with fixed effect of treatment and random effect of block. Survival time was also analyzed using the SAS PHREG (survival analysis) procedure to examine whether there were significant differences between treatment groups and the control group. Numerous compounds of the invention and M9 (positive control) were tested in this model at a dose of 20 mg/kg (Table 3). Typical percent survival for no treatment control is in the range of 0-20% based on study to study variation in challenge inoculum and rate of infection. […] Mouse survival for M9 was about 90-100%, further supporting its residual antibacterial properties against the bacterial strain. Harmonized survival accounts for % survival relative to vehicle (“−” control) and M9 (“+” control)) survival data (Table 3).

TNF-α = assay: Whole blood assay, LPS stimulation, MSD cytokine detection; assay type: cell-based; settings: Bos taurus, fresh whole bovine blood
IL-1β = assay: as above; assay type: cell-based, bovine; settings: fresh whole bovine blood, LPS stimulation; drug concentration giving overstimulation (OS) of IL-1β
IL-6 = assay: as above; assay type: cell-based; settings: Bos taurus, fresh whole bovine blood
[1] = harmonized survival relative to vehicle and M9, 20 mg/kg subcutaneous, Day 10

SMILES: CC[C@H]1OC(=O)[C@H](C)[C@@H](O[C@H]2C[C@@](C)(OC)[C@@H](O)[C@H](C)O2)[C@H](C)[C@@H](O[C@@H]2O[C@H](C)C[C@H](NC)[C@H]2Oc2ccccc2)[C@](C)(O)C[C@@H](C)CN(C)[C@H](C)[C@@H](O)[C@]1(C)O [Example A-26, (2R,3S,4R,5R,8R,10R,11R,12S,13S,14R)-2-ethyl-3,4,10-trihydroxy-13-(((2R,4R,5S,6S)-5-hydroxy-4-methoxy-4,6-dimethyltetrahydro-2H-pyran-2-yl)oxy)-3,5,6,8,10,12,14-heptamethyl-11-(((2S,3R,4S,6R)-6-methyl-4-(methylamino)-3-phenoxytetrahydro-2H-pyran-2-yl)oxy)-1-oxa-6-azacyclopentadecan-15-one]
- % Survival (P. multocida 46572; 46572, sc, 20 mg/kg, 240 h): 1%
- pIC50 (TNF-α): 4.70
- IL-1ß OS of LPS (IL-1β): 16 µM

SMILES: CC[C@H]1OC(=O)[C@H](C)[C@@H](O)[C@H](C)[C@@H](O[C@@H]2O[C@H](C)C[C@H](NC)[C@H]2Oc2ccc(F)cc2)[C@](C)(O)C[C@@H](C)CN[C@H](C)[C@@H](O)[C@]1(C)O [Example B-4, (2R,3S,4R,5R,8R,10R,11R,12S,13S,14R)-2-ethyl-11-(((2S,3R,4S,6R)-3-(4-fluorophenoxy)-6-methyl-4-(methylamino)tetrahydro-2H-pyran-2-yl)oxy)-3,4,10,13-tetrahydroxy-3,5,8,10,12,14-hexamethyl-1-oxa-6-azacyclopentadecan-15-one]
- pIC50 (IL-6): 4.30
- % Survival (P. multocida 46572; 46572, sc, 20 mg/kg, 240 h): 0%
- clinical efficacy, P. multocida infection in mice (P. multocida 46572; mouse, in vivo): clinically efficacious
- pIC50 (TNF-α): 4.30
- IL-1ß OS of LPS (IL-1β): 100 µM

SMILES: CC[C@H]1OC(=O)[C@H](C)[C@@H](O)[C@H](C)[C@@H](O[C@@H]2O[C@H](C)C[C@H](N(C)C(=O)N(C)c3ccccc3)[C@H]2Oc2ccc(OC)cc2)[C@](C)(O)C[C@@H](C)CN[C@H](C)[C@@H](O)[C@]1(C)O [Example C-1, 1-((2S,3R,4S,6R)-2-(((2R,3S,4R,5R,8R,10R,11R,12S,13S,14R)-2-ethyl-3,4,10,13-tetrahydroxy-3,5,8,10,12,14-hexamethyl-15-oxo-1-oxa-6-azacyclopentadecan-11-yl)oxy)-3-(4-methoxyphenoxy)-6-methyltetrahydro-2H-pyran-4-yl)-1,3-dimethyl-3-phenylurea]
- pIC50 (IL-6): 4.72
- % Survival (P. multocida 46572; 46572, sc, 20 mg/kg, 240 h): 33%
- pIC50 (TNF-α): 5.10
- IL-1ß OS of LPS (IL-1β): 16 µM

SMILES: CC[C@H]1OC(=O)[C@H](C)[C@@H](O)[C@H](C)[C@@H](O[C@@H]2O[C@H](C)C[C@H](N(C)C(=O)N(C)c3cc(C)n(C)n3)[C@H]2Oc2ccccc2)[C@](C)(O)C[C@@H](C)CN(C)[C@H](C)[C@@H](O)[C@]1(C)O [Example C-30, 1-(1,5-dimethyl-1H-pyrazol-3-yl)-3-((2S,3R,4S,6R)-2-(((2R,3S,4R,5R,8R,10R,11R,12S,13S,14R)-2-ethyl-3,4,10,13-tetrahydroxy-3,5,6,8,10,12,14-heptamethyl-15-oxo-1-oxa-6-azacyclopentadecan-11-yl)oxy)-6-methyl-3-phenoxytetrahydro-2H-pyran-4-yl)-1,3-dimethylurea]
- % Survival (P. multocida 46572; 46572, sc, 20 mg/kg, 240 h): 0%

SMILES: CCCNC[C@]1(O)[C@H](C)O[C@@H](O[C@H]2[C@H](C)[C@@H](O[C@@H]3O[C@H](C)C[C@H](N(C)C)[C@H]3Oc3ccccc3)[C@](C)(O)C[C@@H](C)CN[C@H](C)[C@@H](O)[C@](C)(O)[C@@H](CC)OC(=O)[C@@H]2C)C[C@@]1(C)OC [Example E-3, (2R,3S,4R,5R,8R,10R,11R,12S,13S,14R)-11-(((2S,3R,4S,6R)-4-(dimethylamino)-6-methyl-3-phenoxytetrahydro-2H-pyran-2-yl)oxy)-2-ethyl-3,4,10-trihydroxy-13-(((2R,4R,5S,6S)-5-hydroxy-4-methoxy-4,6-dimethyl-5-((propylamino)methyl)tetrahydro-2H-pyran-2-yl)oxy)-3,5,8,10,12,14-hexamethyl-1-oxa-6-azacyclopentadecan-15-one]
- % Survival (P. multocida 46572; 46572, sc, 20 mg/kg, 240 h): 37%
- pIC50 (TNF-α): 5.10
- IL-1ß OS of LPS (IL-1β): 13 µM

SMILES: CCCNC[C@]1(O)[C@H](C)O[C@@H](O[C@H]2[C@H](C)[C@@H](O[C@@H]3O[C@H](C)C[C@H](NC)[C@H]3Oc3ncc(Cl)cn3)[C@](C)(O)C[C@@H](C)CN[C@H](C)[C@@H](O)[C@](C)(O)[C@@H](CC)OC(=O)[C@@H]2C)C[C@@]1(C)OC [Example E-30, (2R,3S,4R,5R,8R,10R,11R,12S,13S,14R)-11-(((2S,3R,4S,6R)-3-((5-chloropyrimidin-2-yl)oxy)-6-methyl-4-(methylamino)tetrahydro-2H-pyran-2-yl)oxy)-2-ethyl-3,4,10-trihydroxy-13-(((2R,4R,5S,6S)-5-hydroxy-4-methoxy-4,6-dimethyl-5-((propylamino)methyl)tetrahydro-2H-pyran-2-yl)oxy)-3,5,8,10,12,14-hexamethyl-1-oxa-6-azacyclopentadecan-15-one]
- % Survival (P. multocida 46572; 46572, sc, 20 mg/kg, 240 h): 22%
- pIC50 (TNF-α): 5.15
- IL-1ß OS of LPS (IL-1β): 13 µM

SMILES: CCCNC[C@]1(O)[C@H](C)O[C@@H](O[C@H]2[C@H](C)[C@@H](O[C@@H]3O[C@H](C)C[C@H](N(C)C(=O)N(C)c4cc(C)n(C)n4)[C@H]3Oc3ccccc3)[C@](C)(O)C[C@@H](C)CN[C@H](C)[C@@H](O)[C@](C)(O)[C@@H](CC)OC(=O)[C@@H]2C)C[C@@]1(C)OC [Example F-19, 1-(1,5-dimethyl-1H-pyrazol-3-yl)-3-((2S,3R,4S,6R)-2-(((2R,3S,4R,5R,8R,10R,11R,12S,13S,14R)-2-ethyl-3,4,10-trihydroxy-13-(((2R,4R,5S,6S)-5-hydroxy-4-methoxy-4,6-dimethyl-5-((propylamino)methyl)tetrahydro-2H-pyran-2-yl)oxy)-3,5,8,10,12,14-hexamethyl-15-oxo-1-oxa-6-azacyclopentadecan-11-yl)oxy)-6-methyl-3-phenoxytetrahydro-2H-pyran-4-yl)-1,3-dimethylurea]
- % Survival (P. multocida 46572; 46572, sc, 20 mg/kg, 240 h): 35%

SMILES: CC[C@H]1OC(=O)[C@H](C)[C@@H](O[C@H]2C[C@@](C)(OC)[C@](O)(CN3CCOCC3)[C@H](C)O2)[C@H](C)[C@@H](O[C@@H]2O[C@H](C)C[C@H](N(C)C)[C@H]2Oc2ccccc2)[C@](C)(O)C[C@@H](C)CN[C@H](C)[C@@H](O)[C@]1(C)O [Example H-3, (2R,3S,4R,5R,8R,10R,11R,12S,13S,14R)-11-(((2S,3R,4S,6R)-4-(dimethylamino)-6-methyl-3-phenoxytetrahydro-2H-pyran-2-yl)oxy)-2-ethyl-3,4,10-trihydroxy-13-(((2R,4R,5S,6S)-5-hydroxy-4-methoxy-4,6-dimethyl-5-(morpholinomethyl)tetrahydro-2H-pyran-2-yl)oxy)-3,5,8,10,12,14-hexamethyl-1-oxa-6-azacyclopentadecan-15-one]
- % Survival (P. multocida 46572; 46572, sc, 20 mg/kg, 240 h): 8%

SMILES: CCCNC[C@]1(O)[C@H](C)O[C@@H](O[C@H]2[C@H](C)[C@@H](O[C@@H]3O[C@H](C)C[C@H](N(C)C(=O)N(C)c4ccccc4)[C@H]3O)[C@](C)(O)C[C@@H](C)CN[C@H](C)[C@@H](O)[C@](C)(O)[C@@H](CC)OC(=O)[C@@H]2C)C[C@@]1(C)OC [Example H-11]
- % Survival (P. multocida 46572; [1]): 36%

SMILES: CCCNC[C@]1(O)[C@H](C)O[C@@H](O[C@H]2[C@H](C)[C@@H](O[C@@H]3O[C@H](C)C[C@H](N(C)C(=O)N(C)c4ccc(C(F)(F)F)cc4)[C@H]3O)[C@](C)(O)C[C@@H](C)CN[C@H](C)[C@@H](O)[C@](C)(O)[C@@H](CC)OC(=O)[C@@H]2C)C[C@@]1(C)OC [Example H-13]
- % Survival (P. multocida 46572; [1]): 59%

SMILES: CCCNC[C@]1(O)[C@H](C)O[C@@H](O[C@H]2[C@H](C)[C@@H](O[C@@H]3O[C@H](C)C[C@H](N(C)C(=O)N(c4ccccc4)c4ccccc4)[C@H]3O)[C@](C)(O)C[C@@H](C)CN[C@H](C)[C@@H](O)[C@](C)(O)[C@@H](CC)OC(=O)[C@@H]2C)C[C@@]1(C)OC [Example H-39]
- % Survival (P. multocida 46572; [1]): 44%

SMILES: CCCNC[C@]1(O)[C@H](C)O[C@@H](O[C@H]2[C@H](C)[C@@H](O[C@@H]3O[C@H](C)C[C@H](N(Cc4nccs4)C(=O)N(C)c4ccccc4)[C@H]3O)[C@](C)(O)C[C@@H](C)CN[C@H](C)[C@@H](O)[C@](C)(O)[C@@H](CC)OC(=O)[C@@H]2C)C[C@@]1(C)OC [Example H-64]
- % Survival (P. multocida 46572; [1]): 0%
